Experimental data taken from US10774102B2, “Galactoside inhibitor of galectins” (Galecto Biotech AB, priority 2015, dated 2020).

target: galectin-3 (Homo sapiens (Human), UniProt P17931); experiment: Fluorescence anisotropy assay of galectin-3 affinity (compound inhibits galectin binding to a fluorescein tagged saccharide probe); settings: high affinity probe, 50 nM galectin-3, 100 nM albumin
Procedure: 100 nM albumin was included as a carrier to prevent protein loss at such low concentration of galectin.

Chain of galectin-3 (P17931 whole entry): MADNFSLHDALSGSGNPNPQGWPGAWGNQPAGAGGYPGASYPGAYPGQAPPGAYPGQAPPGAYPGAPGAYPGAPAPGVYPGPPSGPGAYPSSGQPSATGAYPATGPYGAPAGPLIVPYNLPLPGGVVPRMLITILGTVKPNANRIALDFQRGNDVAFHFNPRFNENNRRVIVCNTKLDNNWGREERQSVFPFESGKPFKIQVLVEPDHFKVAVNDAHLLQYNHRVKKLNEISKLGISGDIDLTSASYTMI

Kd [nM] | SMILES
106 | [O-][S+](c1cncc(Cl)c1)[C@H]1OC(CO)[C@H](O)[C@H](n2cc(-c3cc(F)c(F)c(F)c3)nn2)C1O (single isomer, unassigned; isomer 1) [Example 93, 5-Chloropyridin-3-yl 3-deoxy-3-[4-(3,4,5-trifluorophenyl)-1H-1,2,3-triazol-1-yl]-α-D-galactopyranosyl sulfoxide, isomer 1]
41 | [O-][S+](c1cncc(Cl)c1)[C@H]1OC(CO)[C@H](O)[C@H](n2cc(-c3cc(F)c(F)c(F)c3)nn2)C1O (single isomer, unassigned; isomer 2) [Example 94, 5-Chloropyridin-3-yl 3-deoxy-3-[4-(3,4,5-trifluorophenyl)-1H-1,2,3-triazol-1-yl]-α-D-galactopyranosyl sulfoxide, isomer 2]
150 | Cc1ccc(S[C@H]2O[C@H](CO)[C@H](O)[C@H](n3cc(-c4cc(F)c(F)c(F)c4)nn3)[C@H]2O)cc1C [Example 1, 3,4-Dimethylphenyl 3-deoxy-3-[4-(3,4,5-trifluorophenyl)-1H-1,2,3-triazol-1-yl]-1-thio-α-D-galactopyranoside]
37 | OC[C@H]1O[C@H](Sc2cccc(Br)c2)[C@H](O)[C@@H](n2cc(-c3cc(F)c(F)c(F)c3)nn2)[C@H]1O [Example 2, 3-Bromophenyl 3-deoxy-3-[4-(3,4,5-trifluorophenyl)-1H-1,2,3-triazol-1-yl]-1-thio-α-D-galactopyranoside]
420 | CCOc1cccc(S[C@H]2O[C@H](CO)[C@H](O)[C@H](n3cc(-c4cc(F)c(F)c(F)c4)nn3)[C@H]2O)c1 [Example 3, 3-Ethoxyphenyl 3-deoxy-3-[4-(3,4,5-trifluorophenyl)-1H-1,2,3-triazol-1-yl]-1-thio-α-D-galactopyranoside]
190 | OC[C@H]1O[C@H](Sc2ccncc2)[C@H](O)[C@@H](n2cc(-c3cc(F)c(F)c(F)c3)nn2)[C@H]1O [Example 4, 4-Pyridyl 3-deoxy-3-[4-(3,4,5-trifluorophenyl)-1H-1,2,3-triazol-1-yl]-1-thio-α-D-galactopyranoside]
650 | OC[C@H]1O[C@H](Sc2ccc(Cl)cc2Cl)[C@H](O)[C@@H](n2cc(-c3cc(F)c(F)c(F)c3)nn2)[C@H]1O [Example 5, 2,4-Dichlorophenyl 3-deoxy-3-[4-(3,4,5-trifluorophenyl)-1H-1,2,3-triazol-1-yl]-1-thio-α-D-galactopyranoside]
410 | COc1ccc(S[C@H]2OC(CO)[C@H](O)[C@H](n3cc(-c4cc(F)c(F)c(F)c4)nn3)C2O)cc1 (stereo partly drawn) [Example 7, 4-Methoxyphenyl 3-deoxy-3-[4-(3,4,5-trifluorophenyl)-1H-1,2,3-triazol-1-yl]-1-thio α-D-galactopyranoside]
530 | OC[C@H]1O[C@H](Sc2cccc(Cl)c2Cl)[C@H](O)[C@@H](n2cc(-c3cc(F)c(F)c(F)c3)nn2)[C@H]1O [Example 8, 2,3-Dichlorophenyl 3-deoxy-3-[4-(3,4,5-trifluorophenyl)-1H-1,2,3-triazol-1-yl]-1-thio-α-D-galactopyranoside]
1130 | OCC1O[C@H](SCc2ccccc2)C(O)[C@@H](n2cc(-c3cc(F)c(F)c(F)c3)nn2)[C@H]1O (stereo partly drawn) [Example 10, Benzyl 3-deoxy-1-thio-3-[4-(3,4,5-trifluorophenyl)-1H-1,2,3-triazol-1-yl]-1-thio-α-D-galactopyranoside]
180 | OCC1O[C@H](Sc2ccc3ccccc3c2)C(O)[C@@H](n2cc(-c3cc(F)c(F)c(F)c3)nn2)[C@H]1O (stereo partly drawn) [Example 12, 2-Naphtyl 3-deoxy-3-[4-(3,4,5-trifluorophenyl)-1H-1,2,3-triazol-1-yl]-1-thio-α-D-galactopyranoside]
240 | Cc1cccc(S[C@H]2O[C@H](CO)[C@H](O)[C@H](n3cc(-c4cc(F)c(F)c(F)c4)nn3)[C@H]2O)c1 [Example 13, 3-Methylphenyl 3-deoxy-3-[4-(3,4,5-trifluorophenyl)-1H-1,2,3-triazol-1-yl]-1-thio-α-D-galactopyranoside]
130 | OC[C@H]1O[C@H](Sc2cccc(C(F)(F)F)c2)[C@H](O)[C@@H](n2cc(-c3cc(F)c(F)c(F)c3)nn2)[C@H]1O [Example 14, 3-(Trifluoromethyl)phenyl 3-deoxy-3-[4-(3,4,5-trifluorophenyl)-1H-1,2,3-triazol-1-yl]-1-thio-α-D-galactopyranoside]
520 | OC[C@H]1O[C@H](Sc2ccc(Br)cc2)[C@H](O)[C@@H](n2cc(-c3cc(F)c(F)c(F)c3)nn2)[C@H]1O [Example 15, 4-Bromophenyl 3-deoxy-3-[4-(3,4,5-trifluorophenyl)-1H-1,2,3-triazol-1-yl]-1-thio-α-D-galactopyranoside]
80 | OC[C@H]1O[C@H](Sc2cc(Cl)cc(Cl)c2)[C@H](O)[C@@H](n2cc(-c3cc(F)c(F)c(F)c3)nn2)[C@H]1O [Example 16, 3,5-Dichlorophenyl 3-deoxy-3-[4-(3,4,5-trifluorophenyl)-1H-1,2,3-triazol-1-yl]-1-thio-α-D-galactopyranoside]
1580 | Cc1cccc(C)c1S[C@H]1O[C@H](CO)[C@H](O)[C@H](n2cc(-c3cc(F)c(F)c(F)c3)nn2)[C@H]1O [Example 17, 2,6-Dimethylphenyl 3-deoxy-3-[4-(3,4,5-trifluorophenyl)-1H-1,2,3-triazol-1-yl]-1-thio-α-D-galactopyranoside]
960 | OCC1O[C@H](Sc2cccc3ccccc23)C(O)[C@@H](n2cc(-c3cc(F)c(F)c(F)c3)nn2)[C@H]1O (stereo partly drawn) [Example 18, 1-Naphthyl 3-deoxy-1-thio-3-[4-(3,4,5-trifluorophenyl)-1H-1,2,3-triazol-1-yl]-1-thio-α-D-galactopyranoside]
49 | OC[C@H]1O[C@H](Sc2cccc(Cl)c2)[C@H](O)[C@@H](n2cc(-c3cc(F)c(F)c(F)c3)nn2)[C@H]1O [Example 19, 3-Chlorophenyl 3-deoxy-3-[4-(3,4,5-trifluorophenyl)-1H-1,2,3-triazol-1-yl]-1-thio-α-D-galactopyranoside]
500 | OC[C@H]1O[C@H](Sc2cccc(OC(F)(F)F)c2)[C@H](O)[C@@H](n2cc(-c3cc(F)c(F)c(F)c3)nn2)[C@H]1O [Example 20, 3-(Trifluoromethoxy)phenyl 3-deoxy-3-[4-(3,4,5-trifluorophenyl)-1H-1,2,3-triazol-1-yl]-1-thio-α-D-galactopyranoside]
510 | OCC1O[C@H](Sc2ccccn2)C(O)[C@@H](n2cc(-c3cc(F)c(F)c(F)c3)nn2)[C@H]1O (stereo partly drawn) [Example 21, 2-Pyridyl 3-deoxy-3-[4-(3,4,5-trifluorophenyl-1H-1,2,3-triazol-1-yl]-)-1-thio-α-D-galactopyranoside]
490 | OC[C@H]1O[C@H](Oc2ccc(Cl)c(Cl)c2)[C@H](O)[C@@H](n2cc(-c3cc(F)c(F)c(F)c3)nn2)[C@H]1O [Example 22, 3,4-Dichlorophenyl 3-deoxy-3-[4-(3,4,5-trifluorophenyl)-1H-1,2,3-triazol-1-yl]-α-D-galactopyranoside]
200 | OC[C@H]1O[C@H](Sc2ccc(Cl)cc2)[C@H](O)[C@@H](n2cc(-c3cc(F)c(F)c(F)c3)nn2)[C@H]1O [Example 23, 4-Chlorophenyl 3-deoxy-3-[4-(3,4,5-trifluorophenyl)-1H-1,2,3-triazol-1-yl]-1-thio-α-D-galactopyranoside]
10 | [O-][S+](c1ccc(Cl)c(Cl)c1)[C@H]1O[C@H](CO)[C@H](O)[C@H](n2cc(-c3cc(F)c(F)c(F)c3)nn2)[C@H]1O (stereo partly drawn) [Example 24, 3,4-Dichlorophenyl 3-deoxy-3-[4-(3,4,5-trifluorophenyl)-1H-1,2,3-triazol-1-yl]-α-D-galactopyranosyl sulfoxide]
62 | O=S(=O)(c1ccc(Cl)c(Cl)c1)[C@H]1O[C@H](CO)[C@H](O)[C@H](n2cc(-c3cc(F)c(F)c(F)c3)nn2)[C@H]1O [Example 25, 3,4-Dichlorophenyl 3-deoxy-3-[4-(3,4,5-trifluorophenyl)-1H-1,2,3-triazol-1-yl]-α-D-galactopyranosyl sulfone]
770 | [O-][S+](c1ccc(Cl)cc1)[C@H]1O[C@H](CO)[C@H](O)[C@H](n2cc(-c3cc(F)c(F)c(F)c3)nn2)[C@H]1O (stereo partly drawn) [Example 26, 4-Chlorophenyl 3-deoxy-3-[4-(3,4,5-trifluorophenyl)-1H-1,2,3-triazol-1-yl]-α-D-galactopyranosyl sulfoxide]
400 | OC[C@H]1O[C@H](Sc2ccccc2)[C@H](O)[C@@H](n2cc(-c3cc(F)c(F)c(F)c3)nn2)[C@H]1O [Example 27, Phenyl 3-deoxy-3-[4-(3,4,5-trifluorophenyl)-1H-1,2,3-triazol-1-yl]-1-thio-α-D-galactopyranoside]
48 | OC[C@H]1O[C@H](Sc2ccc(F)c(Cl)c2)[C@H](O)[C@@H](n2cc(-c3cc(F)c(F)c(F)c3)nn2)[C@H]1O [Example 28, 3-Chloro-4-fluorophenyl 3-deoxy-3-[4-(3,4,5-trifluorophenyl)-1H-1,2,3-triazol-1-yl]-1-thio-α-D-galactopyranoside]
270 | OC[C@H]1O[C@H](Sc2ccc(F)cc2)[C@H](O)[C@@H](n2cc(-c3cc(F)c(F)c(F)c3)nn2)[C@H]1O [Example 30, 4-Fluorophenyl 3-deoxy-3-[4-(3,4,5-trifluorophenyl)-1H-1,2,3-triazol-1-yl]-1-thio-α-D-galactopyranoside]

SMILES | Kd [nM]
[O-][S+](c1cncc(Br)c1)[C@H]1O[C@H](CO)[C@H](O)[C@H](n2cc(-c3cc(F)c(F)c(F)c3)nn2)[C@H]1O (single isomer, unassigned; isomer 1) [Example 90, 5-Bromopyridin-3-yl 3-deoxy-3-[4-(3,4,5-trifluorophenyl)-1H-1,2,3-triazol-1-yl]-α-D-galactopyranosyl sulfoxide, isomer 1] | 28
[O-][S+](c1cncc(Br)c1)[C@H]1O[C@H](CO)[C@H](O)[C@H](n2cc(-c3cc(F)c(F)c(F)c3)nn2)[C@H]1O (single isomer, unassigned; isomer 2) [Example 91, 5-Bromopyridin-3-yl 3-deoxy-3-[4-(3,4,5-trifluorophenyl)-1H-1,2,3-triazol-1-yl]-α-D-galactopyranosyl sulfoxide, isomer 2] | 130
